Measured values: patent US20240043404A1 (AbbVie Inc., priority 2009, published 2024)

Tested on: RS4;11 cells
Test: RS4;11 cell viability assay (CellTiter Glo);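 note: acute lymphoblastic leukemia line RS4,11, EC50 derived from percentage of viable cells after treatment relative to untreated controls, cell killing taken as a measure of Bcl-2 inhibition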
Type: cell-based, human
Conditions: Homo sapiens, RS4-11, 48 h, 50,000 cells per well, 10% human serum, 48 hours; read-out: RS4; 11 EC50 Values
Method: The acute lymphoblastic leukemia (ALL) cell line RS4;11 was used as the primary human cell line to assess the cellular activity of Bcl-2 selective agents in vitro and their efficacy in vivo.
Cell cytotoxicity EC50 values were assessed using CellTiter Glo (Promega) according to the manufacturer's recommendations. The EC50 values were determined as a percentage of viable cells following treatment compared to the untreated control cells.

Row | SMILES | EC50 [nM]
1 | CC1(C)CCC(CN2CCN(c3ccc(C(=O)NS(=O)(=O)c4ccc(NC5CCN(C6COC6)CC5)c([N+](=O)[O-])c4)c(Oc4cnc5[nH]ccc5c4)c3)CC2)=C(c2ccc(Cl)cc2)C1 [Example 139, 4-(4-{[2-(4-chlorophenyl)-4,4-dimethylcyclohex-1-en-1-yl]methyl}piperazin-1-yl)-N-({3-nitro-4-[(1-oxetan-3-ylpiperidin-4-yl)amino]phenyl}sulfonyl)-2-(1H-pyrrolo[2,3-b]pyridin-5-yloxy)benzamide] | 16.8
2 | CC1(C)CCC(CN2CCN(c3ccc(C(=O)NS(=O)(=O)c4ccc(NC5CCN(C6CCOC(C)(C)C6)CC5)c([N+](=O)[O-])c4)c(Oc4cnc5[nH]ccc5c4)c3)CC2)=C(c2ccc(Cl)cc2)C1 (stereo not shown) [Example 141, 4-(4-{[2-(4-chlorophenyl)-4,4-dimethylcyclohex-1-en-1-yl]methyl}piperazin-1-yl)-N-[(4-{[1-(2,2-dimethyltetrahydro-2H-pyran-4-yl)piperidin-4-yl]amino}-3-nitrophenyl)sulfonyl]-2-(1H-pyrrolo[2,3-b]pyridin-5-yloxy)benzamide] | 20.4
3 | CC1(C)CCC(CN2CCN(c3ccc(C(=O)NS(=O)(=O)c4ccc(N[C@H]5CCN(C6CC6)C5)c([N+](=O)[O-])c4)c(Oc4cnc5[nH]ccc5c4)c3)CC2)=C(c2ccc(Cl)cc2)C1 [Example 142, 4-(4-{[2-(4-chlorophenyl)-4,4-dimethylcyclohex-1-en-1-yl]methyl}piperazin-1-yl)-N-[(4-{[(3S)-1-cyclopropylpyrrolidin-3-yl]amino}-3-nitrophenyl)sulfonyl]-2-(1H-pyrrolo[2,3-b]pyridin-5-yloxy)benzamide] | 345
4 | CC1(C)CCC(CN2CCN(c3ccc(C(=O)NS(=O)(=O)c4ccc(NC5CCN(C6CCOC6)CC5)c([N+](=O)[O-])c4)c(Oc4cnc5[nH]ccc5c4)c3)CC2)=C(c2ccc(Cl)cc2)C1 (stereo not shown) [Example 143, 4-(4-{[2-(4-chlorophenyl)-4,4-dimethylcyclohex-1-en-1-yl]methyl}piperazin-1-yl)-N-({3-nitro-4-[(1-tetrahydrofuran-3-ylpiperidin-4-yl)amino]phenyl}sulfonyl)-2-(1H-pyrrolo[2,3-b]pyridin-5-yloxy)benzamide] | 19.1
5 | CC1(C)CCC(CN2CCN(c3ccc(C(=O)NS(=O)(=O)c4ccc(N[C@@H]5CCN(C6CC6)C5)c([N+](=O)[O-])c4)c(Oc4cnc5[nH]ccc5c4)c3)CC2)=C(c2ccc(Cl)cc2)C1 [Example 144, 4-(4-{[2-(4-chlorophenyl)-4,4-dimethylcyclohex-1-en-1-yl]methyl}piperazin-1-yl)-N-[(4-{[(3R)-1-cyclopropylpyrrolidin-3-yl]amino}-3-nitrophenyl)sulfonyl]-2-(1H-pyrrolo[2,3-b]pyridin-5-yloxy)benzamide] | 21.2
6 | CC(C)(CO)CNc1ccc(S(=O)(=O)NC(=O)c2ccc(N3CCN(CC4=C(c5ccc(Cl)cc5)CC(C)(C)CC4)CC3)cc2Oc2cnc3[nH]ccc3c2)cc1[N+](=O)[O-] [Example 146, 4-(4-{[2-(4-chlorophenyl)-4,4-dimethylcyclohex-1-en-1-yl]methyl}piperazin-1-yl)-N-({4-[(3-hydroxy-2,2-dimethylpropyl)amino]-3-nitrophenyl}sulfonyl)-2-(1H-pyrrolo[2,3-b]pyridin-5-yloxy)benzamide] | 19.2
7 | CC1(C)CCC(CN2CCN(c3ccc(C(=O)NS(=O)(=O)c4ccc(NCC5CCCN(S(C)(=O)=O)C5)c([N+](=O)[O-])c4)c(Oc4cnc5[nH]ccc5c4)c3)CC2)=C(c2ccc(Cl)cc2)C1 (stereo not shown) [Example 147, 4-(4-{[2-(4-chlorophenyl)-4,4-dimethylcyclohex-1-en-1-yl]methyl}piperazin-1-yl)-N-{[4-({[1-(methylsulfonyl)piperidin-3-yl]methyl}amino)-3-nitrophenyl]sulfonyl}-2-(1H-pyrrolo[2,3-b]pyridin-5-yloxy)benzamide] | 26.2
8 | CC1(C)CCCC(CN2CCN(c3ccc(C(=O)NS(=O)(=O)c4ccc(NCC5CCOCC5)c([N+](=O)[O-])c4)c(Oc4cnc5[nH]ccc5c4)c3)CC2)=C1c1ccc(Cl)cc1 [Example 150, 4-(4-{[2-(4-chlorophenyl)-3,3-dimethylcyclohex-1-en-1-yl]methyl}piperazin-1-yl)-N-({3-nitro-4-[(tetrahydro-2H-pyran-4-ylmethyl)amino]phenyl}sulfonyl)-2-(1H-pyrrolo[2,3-b]pyridin-5-yloxy)benzamide] | 51

Now those with a lower EC50, led by results:

Row | EC50 [nM] | SMILES
9 | 1.52 | CC1(C)CCC(CN2CCN(c3ccc(C(=O)NS(=O)(=O)c4ccc(NCC5(F)CCOCC5)c([N+](=O)[O-])c4)c(Oc4cnc5[nH]ccc5c4)c3)CC2)=C(c2ccc(Cl)cc2)C1 [Example 138, 4-(4-{[2-(4-chlorophenyl)-4,4-dimethylcyclohex-1-en-1-yl]methyl}piperazin-1-yl)-N-[(4-{[(4-fluorotetrahydro-2H-pyran-4-yl)methyl]amino}-3-nitrophenyl)sulfonyl]-2-(1H-pyrrolo[2,3-b]pyridin-5-yloxy)benzamide]
10 | 12.8 | CC1(C)CCC(CN2CCN(c3ccc(C(=O)NS(=O)(=O)c4ccc(NC5CCN(C6CCC6)CC5)c([N+](=O)[O-])c4)c(Oc4cnc5[nH]ccc5c4)c3)CC2)=C(c2ccc(Cl)cc2)C1 [Example 140, 4-(4-{[2-(4-chlorophenyl)-4,4-dimethylcyclohex-1-en-1-yl]methyl}piperazin-1-yl)-N-({4-[(1-cyclobutylpiperidin-4-yl)amino]-3-nitrophenyl}sulfonyl)-2-(1H-pyrrolo[2,3-b]pyridin-5-yloxy)benzamide]
11 | 4 | CC1(C)CCC(CN2CCN(c3ccc(C(=O)NS(=O)(=O)c4ccc(NC[C@@H]5CCN(C6CCOCC6)C5)c([N+](=O)[O-])c4)c(Oc4cnc5[nH]ccc5c4)c3)CC2)=C(c2ccc(Cl)cc2)C1 [Example 145, 4-(4-{[2-(4-chlorophenyl)-4,4-dimethylcyclohex-1-en-1-yl]methyl}piperazin-1-yl)-N-{[3-nitro-4-({[(3S)-1-tetrahydro-2H-pyran-4-ylpyrrolidin-3-yl]methyl}amino)phenyl]sulfonyl}-2-(1H-pyrrolo[2,3-b]pyridin-5-yloxy)benzamide]
12 | 9.38 | CC(=O)N1CCCC(CNc2ccc(S(=O)(=O)NC(=O)c3ccc(N4CCN(CC5=C(c6ccc(Cl)cc6)CC(C)(C)CC5)CC4)cc3Oc3cnc4[nH]ccc4c3)cc2[N+](=O)[O-])C1 (stereo not shown) [Example 148, N-[(4-{[(1-acetylpiperidin-3-yl)methyl]amino}-3-nitrophenyl)sulfonyl]-4-(4-{[2-(4-chlorophenyl)-4,4-dimethylcyclohex-1-en-1-yl]methyl}piperazin-1-yl)-2-(1H-pyrrolo[2,3-b]pyridin-5-yloxy)benzamide]
13 | 13.5 | CC1(C)CCC(CN2CCN(c3ccc(C(=O)NS(=O)(=O)c4ccc(N[C@@H]5CCN(S(C)(=O)=O)C5)c([N+](=O)[O-])c4)c(Oc4cnc5[nH]ccc5c4)c3)CC2)=C(c2ccc(Cl)cc2)C1 [Example 149, 4-(4-{[2-(4-chlorophenyl)-4,4-dimethylcyclohex-1-en-1-yl]methyl}piperazin-1-yl)-N-[(4-{[(3R)-1-(methylsulfonyl)pyrrolidin-3-yl]amino}-3-nitrophenyl)sulfonyl]-2-(1H-pyrrolo[2,3-b]pyridin-5-yloxy)benzamide]
